Read-outs that look alike come from different tables or passages of the source.
How the values were obtained:
[1] = tested on: H929 human cancer cell lines; assay: Cellular viability / proliferation (Cell TiterGlo, 72 h); format: cell-based
Procedure, shortened: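 1,000 cells/well, 10% FBS medium; compound added at 24 h, 2-fold dilutions from 50 μM top, DMSO <1% final. 72 h exposure, CellTiterGlo 30 min RT dark, luminescence read. IC50 by 4-parameter fit.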

Mcl-1 = Mcl-1 (Homo sapiens (Human), UniProt Q07820); assay: Fluorescence polarization anisotropy (FPA) competition assay, FITC-Bak or FITC-Bim BH3 peptide; format: binding; details: read-out: Ki for Inhibition of Mcl-1 by FPA assay
[2] = Homo sapiens, NCI-H929, 72 h, read-out: GI50 on cellular proliferation of H929 human cancer cell lines, H929 cells, 72 h, Cell TiterGlo, 10% FBS

Mcl-1, sequence (Q07820 172-327): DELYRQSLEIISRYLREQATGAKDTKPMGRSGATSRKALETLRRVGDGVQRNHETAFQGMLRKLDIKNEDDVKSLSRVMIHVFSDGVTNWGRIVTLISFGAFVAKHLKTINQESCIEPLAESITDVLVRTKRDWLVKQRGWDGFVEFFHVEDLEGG

Structure (SMILES)	GI50 [1, 2] [nM]	Ki (Mcl-1) [nM]	GI50 ([1]; H929 cells, 72 h, Cell TiterGlo, 10% FBS, read-out: GI50 on cellular proliferation of H929 human cancer cell lines) [nM]
COc1ccc(N2C[C@@H](C)n3c(c(CCCOc4cc(C)c(Cl)c(C)c4)c4ccc(Cl)c(-c5c(C)nn(C)c5C)c43)C2=O)c2c1cc(C(N)=O)n2C [Example 412, (R)-7-(7-Chloro-10-(3-(4-chloro-3,5-dimethylphenoxy)propyl)-4-methyl-1-oxo-6-(1,3,5-trimethyl-1H-pyrazol-4-yl)-3,4-dihydropyrazino[1,2-a]indol-2(1H)-yl)-4-methoxy-1-methyl-1H-indole-2-carboxamide]	450	1.3	–
Cc1cc(OCCCc2c3n(c4c(-c5c(C)nn(C)c5C)c(Cl)ccc24)[C@H](C)CN(c2cccc4c(C(=O)O)cn(Cc5cccnc5)c24)C3=O)cc(C)c1Cl [Example 467, (R)-7-(7-Chloro-10-(3-(4-chloro-3,5-dimethylphenoxy)propyl)-4-methyl-1-oxo-6-(1,3,5-trimethyl-1H-pyrazol-4-yl)-3,4-dihydropyrazino[1,2-a]indol-2(1H)-yl)-1-(pyridin-3-ylmethyl)-1H-indole-3-carboxylic acid]	1300	1.3	–
Cc1cc(OCCCc2c3n(c4c(-c5c(C)nn(C)c5C)c(Cl)ccc24)[C@H](C)CN(c2cc(C(=O)O)c4ccn(CCN5CCOCC5)c4c2)C3=O)cc(C)c1Cl [Example 94, (R)-6-(7-chloro-10-(3-(4-chloro-3,5-dimethylphenoxy)propyl)-4-methyl-1-oxo-6-(1,3,5-trimethyl-1H-pyrazol-4-yl)-3,4-dihydropyrazino[1,2-a]indol-2(1H)-yl)-1-(2-morpholinoethyl)-1H-indole-4-carboxylic acid]	1500	< 1	–
Cc1cc(OCCCc2c3n(c4c(-c5c(C)nn(C)c5C)c(Cl)ccc24)[C@H](C)CN(c2cn(C)c4ccc(-c5cnccn5)cc24)C3=O)cc(C)c1Cl [Example 430, (R)-7-Chloro-10-(3-(4-chloro-3,5-dimethylphenoxy)propyl)-4-methyl-2-(1-methyl-5-(pyrazin-2-yl)-1H-indol-3-yl)-6-(1,3,5-trimethyl-1H-pyrazol-4-yl)-3,4-dihydropyrazino[1,2-a]indol-1(2H)-one]	1400	1.9	–
Cc1cc(OCCCc2c3n(c4c(-c5c(C)nc(N6CCN(C)CC6)nc5C)c(Cl)ccc24)CCCN(c2cn(C)c4ccc(C(=O)O)cc24)C3=O)cc(C)c1Cl [Example 228, 3-(8-Chloro-11-(3-(4-chloro-3,5-dimethylphenoxy)propyl)-7-(4,6-dimethyl-2-(4-methylpiperazin-1-yl)pyrimidin-5-yl)-1-oxo-4,5-dihydro-1H-[1,4]diazepino[1,2-a]indol-2(3H)-yl)-1-methyl-1H-indole-5-carboxylic acid]	780	1.6	–
Cc1cc(OCCCc2c3n(c4c(-c5c(C)nn(C)c5C)c(Cl)ccc24)[C@H](C)CN(c2cccc4cc(C(=O)O)n(Cc5nccs5)c24)C3=O)cc(C)c1Cl [Example 298, 7-[(4R)-7-chloro-10-[3-(4-chloro-3,5-dimethyl-phenoxy)propyl]-4-methyl-1-oxo-6-(1,3,5-trimethylpyrazol-4-yl)-3,4-dihydropyrazino[1,2-a]indol-2-yl]-1-(thiazol-2-ylmethyl)indole-2-carboxylic acid]	290	< 1	–
Cc1cc(OCCCc2c3n(c4c(-c5c(C)nn(C)c5C)c(Cl)ccc24)CCCN(c2cc(C(=O)O)c4nnn(C)c4c2)C3=O)cc(C)c1Cl [Example 4, 6-[8-Chloro-11-[3-(4-chloro-3,5-dimethyl-phenoxy)propyl]-1-oxo-7-(1,3,5-trimethylpyrazol-4-yl)-4,5-dihydro-3H-[1,4]diazepino[1,2-a]indol-2-yl]-1-methyl-benzotriazole-4-carboxylic acid]	8700	3.3	–
Cc1cc(OCCCc2c3n(c4c(-c5c(C)nn(C)c5C)c(Cl)ccc24)[C@H](C)CN(c2cn(C)c4ccc(C(=O)NCc5ccccn5)cc24)C3=O)cc(C)c1Cl [Example 281, 3-[(4R)-7-chloro-10-[3-(4-chloro-3,5-dimethyl-phenoxy)propyl]-4-methyl-1-oxo-6-(1,3,5-trimethylpyrazol-4-yl)-3,4-dihydropyrazino[1,2-a]indol-2-yl]-1-methyl-N-(2-pyridylmethyl)indole-5-carboxamide]	1400	2.2	–
Cc1cc(OCCCc2c3n(c4c(-c5c(C)nn(C)c5C)c(Cl)ccc24)[C@H](C)CN(c2cccc4cc(C(=O)O)n(CCN(C)C)c24)C3=O)cc(C)c1Cl [Example 322, (R)-7-(7-Chloro-10-(3-(4-chloro-3,5-dimethylphenoxy)propyl)-4-methyl-1-oxo-6-(1,3,5-trimethyl-1H-pyrazol-4-yl)-3,4-dihydropyrazino[1,2-a]indol-2(1H)-yl)-1-(2-(dimethylamino)ethyl)-1H-indole-2-carboxylic acid]	1800	1.7	–
Cc1cc(OCCCc2c3n(c4c(-c5c(C)nn(CCN6CCCC6)c5C)c(Cl)ccc24)[C@H](C)CN(c2cn(C)c4cc(C(=O)O)ccc24)C3=O)cc(C)c1Cl [Example 306, (R)-3-(7-chloro-10-(3-(4-chloro-3,5-dimethylphenoxy)propyl)-6-(3,5-dimethyl-1-(2-(pyrrolidin-1-yl)ethyl)-1H-pyrazol-4-yl)-4-methyl-1-oxo-3,4-dihydropyrazino[1,2-a]indol-2(1H)-yl)-1-methyl-1H-indole-6-carboxylic acid]	600	1.3	–
Cc1cc(OCCCc2c3n(c4c(-c5c(C)nn(C)c5C)c(Cl)ccc24)[C@H](C)CN(c2cccc4nn(C)c(C(=O)O)c24)C3=O)cc(C)c1Cl [Example 132, 4-[(4R)-7-chloro-10-[3-(4-chloro-3,5-dimethyl-phenoxy)propyl]-4-methyl-1-oxo-6-(1,3,5-trimethylpyrazol-4-yl)-3,4-dihydropyrazino[1,2-a]indol-2-yl]-2-methyl-indazole-3-carboxylic acid]	840	< 1	–
Cc1cc(OCCCc2c3n(c4c(-c5c(C)nn(C)c5C)c(Cl)ccc24)[C@H](C)CN(c2cc(OCc4ccccc4)cc4cc(C(=O)O)n(C)c24)C3=O)cc(C)c1Cl [Example 333, (M, R)-5-(Benzyloxy)-7-(7-chlor-10-(3-(4-chloro-3,5-dimethylphenoxy)propyl)-4 methyl-1-oxo-6-(1,3,5-trimethyl-1H-pyrazol-4-yl)-3,4-dihydropyrazino[1,2-a]indol-2(1H)-yl)-1-methyl-1H-indole-2-carboxylic acid]	–	1.3	1100
Cc1nnc(Cn2c(C(=O)O)cc3cccc(N4C[C@@H](C)n5c(c(CCCOc6cc(C)c(Cl)c(C)c6)c6ccc(Cl)c(-c7c(C)nn(C)c7C)c65)C4=O)c32)o1 [Example 315, 7-[(4R)-7-chloro-10-[3-(4-chloro-3,5-dimethyl-phenoxy)propyl]-4-methyl-1-oxo-6-(1,3,5-trimethylpyrazol-4-yl)-3,4-dihydropyrazino[1,2-a]indol-2-yl]-1-[(5-methyl-1,3,4-oxadiazol-2-yl)methyl]indole-2-carboxylic acid]	2800	< 1	–
Cc1cc(OCCCc2c3n(c4c(-c5c(C)nn(C)c5C)c(Cl)ccc24)[C@H](C)CN(c2cn(C)c4ccc(-c5ncn(CC6COC6)n5)cc24)C3=O)cc(C)c1Cl [Example 475, (R)-7-Chloro-10-(3-(4-chloro-3,5-dimethylphenoxy)propyl)-4-methyl-2-(1-methyl-5-(1-(oxetan-3-ylmethyl)-1H-1,2,4-triazol-3-yl)-1H-indol-3-yl)-6-(1,3,5-trimethyl-1H-pyrazol-4-yl)-3,4-dihydropyrazino[1,2-a]indol-1(2H)-one]	250	7	–
Cc1cc(OCCCc2c3n(c4c(-c5c(C)nn(C)c5C)c(Cl)ccc24)[C@H](C)CN(c2ccc4c(c2)c(C(=O)O)cn4C)C3=O)cc(C)c1Cl [Example 171, (R)-5-(7-Chloro-10-(3-(4-chloro-3,5-dimethylphenoxy)propyl)-4-methyl-1-oxo-6-(1,3,5-trimethyl-1H-pyrazol-4-yl)-3,4-dihydropyrazino[1,2-a]indol-2(1H)-yl)-1-methyl-1H-indole-3-carboxylic acid]	1500	< 1	–
Cc1cc(OCCCc2c3n(c4c(-c5c(C)nn(C)c5C)c(Cl)ccc24)[C@H](C)CN(c2cccc4c2cc(-c2nn[nH]n2)n4C)C3=O)cc(C)c1Cl [Example 307, (4R)-7-chloro-10-[3-(4-chloro-3,5-dimethyl-phenoxy)propyl]-4-methyl-2-[1-methyl-2-(2H-tetrazol-5-yl)indol-4-yl]-6-(1,3,5-trimethylpyrazol-4-yl)-3,4-dihydropyrazino[1,2-a]indol-1-one]	3500	1.3	–
CCCn1cc(N2C[C@@H](C)n3c(c(CCCOc4cc(C)c(Cl)c(C)c4)c4ccc(Cl)c(-c5c(C)nn(C)c5C)c43)C2=O)c2cc(C(=O)O)ccc21 [Example 158, (R)-3-(7-Chloro-10-(3-(4-chloro-3,5-dimethylphenoxy)propyl)-4-methyl-1-oxo-6-(1,3,5-trimethyl-1H-pyrazol-4-yl)-3,4-dihydropyrazino[1,2-a]indol-2(1H)-yl)-1-propyl-1H-indole-5-carboxylic acid]	480	< 1	–
Cc1cc(OCCCc2c3n(c4c(-c5c(C)nn(C)c5C)c(Cl)ccc24)[C@H](C)CN(c2cccc4c2cc(C(=O)O)n4CCN2CCOCC2)C3=O)cc(C)c1Cl [Example 367, (R)-4-(7-Chloro-10-(3-(4-chloro-3,5-dimethylphenoxy)propyl)-4-methyl-1-oxo-6-(1,3,5-trimethyl-1H-pyrazol-4-yl)-3,4-dihydropyrazino[1,2-a]indol-2(1H)-yl)-1-(2-morpholinoethyl)-1H-indole-2-carboxylic acid]	400	1.2	–

Source: patent US11596639B2, “Substituted indole Mcl-1 inhibitors” (Vanderbilt University, priority 2016, dated 2023)
